Measured values reported in US20260257992A1, “AGONISTS OF SMALL HETERODIMER PARTNER FOR CANCER THERAPY” (THE BOARD OF TRUSTEES OF THE UNIVERSITY OF ILLINOIS, priority 2023, published 2026).

Tests used:
Lewis Lung tumors = Lewis Lung tumors grown in the flank; assay type: in vivo, mouse
Excerpt: FIG. 7A-7I. DSHN-OMe reduces tumor and metastatic growth in murine models, in a myeloid cell-NR0B2 dependent manner. (A) E0771 cells were grafted into control mice (NR0B2^+/+; LysMCre^+) or mice where NR0B2 was knocked out in myeloid immune cells (NR0B2^fl/fl; LysMCre^+). 8 days post-graft, daily treatment with placebo or DSHN-OMe was initiated and subsequent tumor growth followed through time. Different letters denote statistical difference on the final measurement (day 21, 2-Way ANOVA followed by Šidák's post-hoc, N=5-8). (B) Waterfall plot illustration of data in (A) showing tumor volume at final day of measurement. Asterisk indicates significant difference (Chi-squared test, P<0.05). (C) Lewis Lung cells were grafted into control mice (NR0B2^+/+; LysMCre^+) or mice where NR0B2 was knocked out in myeloid immune cells (NR0B2^fl/fl; LysMCre^+). 10 days post-graft, daily treatment with placebo or DSHN-OMe was initiated and subsequent tumor growth followed through time. […] (G) EMT6 metastatic lungs were assessed for Ki67 mRNA and (H) FOXP3 mRNA. (I) EMT6 metastatic lungs were assessed for CD8+ cytotoxic T cells (CD8+). […]
Since Tregs are considered a problem common to many solid tumor types, we reasoned that DSHN-OMe should have broad efficacy. To test this, we evaluated the ability of DSHN-OMe to influence the growth of murine Lewis Lung tumors grown in the flank.

ABCA1 mRNA = ABCA1 mRNA reduction in Raw cells; assay type: cell-based; parameters: key: ✓: using strict cutoffs with respect to DSHN for passing each metric; X: using strict cutoffs with respect to DSHN for passing each metric; conditions: pass/fail with respect to DSHN
Excerpt: Development of a more efficacious NR0B2 agonist. While DSHN was a useful proof-of-concept small molecule, macrophages required high doses and chronic exposure for robust influences on subsequent Tregs expansion. […] Therefore, we synthesized several derivatives of DSHN and screened them using a reporter assay which makes use of the endogenous cholesterol homeostatic feedback loop, where FXR activation upregulates NR0B2, which then inhibits LXR and its normal induction of ABCA1. We then followed this screen with several others with stringent cutoffs: effect on endogenous ABCA1 and IL1β expression, reduction of Treg expansion in either macrophage or DC co-cultures, and low cellular toxicity (FIG. 5A, Table 4).

Treg expansion = Treg expansion in co-culture with compound-treated splenic CD11C+ dendritic cells; assay type: cell-based, mouse; parameters: key to Treg expansion Dendritic Cells: ✓: using strict cutoffs with respect to DSHN for passing each metric; X: using strict cutoffs with respect to DSHN for passing each metric
Description: Preparation of Bone Marrow-Derived Macrophages (BMDMs) and Dendritic Cells. Bone marrow cells were collected from mouse tibia and femur. Cells were passed through 70-micron cell strainer and subsequently cultured 10 mL complete RPMI media supplemented with 20 ng/mL of recombinant murine M-CSF (576406; BioLegend, 315-02 PeproTech). On day 3, additional 5 ml of the complete media was added. On day 7, media was replaced. BMDMs were harvested on day 10 using cell stripper solution for further experiments. Dendritic cells were isolated from the spleens of wildtype, using mouse CD11c UltraPure MicroBeads (130-125-835; Miltenyi Biotec) according to the manufacturer's instructions) and cultured in RPMI medium supplemented with 10% heat-inactivated charcoal-stripped FBS, 50 μM β-mercaptoethanol, 1% sodium pyruvate, 1% nonessential amino acids, % penicillin/streptomycin, and 1% Glutamax.
In vitro Treg expansion assays. T cells were cultured in RPMI medium supplemented with 10% heat-inactivated charcoal-stripped FBS, 50 μM β-mercaptoethanol (Gibco), 1% sodium pyruvate, 1% nonessential amino acids, % penicillin/streptomycin, and 1% Glutamax (Gibco). Naïve CD4^+ T cells were isolated from the spleens of wildtype and OT-II, using Naive CD4^+ T Cell Isolation Kit (Miltenyi Biotec according to the manufacturer's instructions). T cells were labeled with the vital dye CFSE (BioLegend) or Cell Trace Violet (ThermoFisher) according to the manufacturer's instructions. For wildtype Treg expansion in presence of antigen presenting cells, naïve CD4^+ T cells were co-cultured with APC at indicated ratio in the presence of 0.5 μg/mL (anti-CD3 BioLegend), 0.5 ng/mL TGFβ (BioLegend) and 0.5 ng/ml IL-2 (BioLegend) for 72 hr at 37° C. For OT-II Treg expansion, OTII naïve CD4^+ T cells from OT-II mice were activated by antigen presentation by culturing BMDMs were primed with 10 μg/mL OVA323-339 (Bachem) and 0.5 μg/mL LPS (Sigma). naïve CD4+ T cells from OTII mice were co-cultured with primed APC at indicated ratio for 72 hrs. After 72 hrs of culture, cells were transferred into V-bottom plates (BD), pelleted by centrifugation and incubated with antibody staining mix containing Ghost Dye™ Red 780 viability dye diluted in PBS for 15 minutes at 4° C. Cell surface antigens were stained for 15 minutes at 4° C. with an antibody staining mix containing Ghost Dye™ Red 780 viability dye diluted in PBS. Cells were fixed and permeabilized with BD Cytofix/Cytoperm™ for 20 minutes at 4° C. Antibodies against intracellular antigens were diluted in 1×BD Perm/Wash™ buffer and cells were stained for 30 minutes at 4° C. Cytometry data were acquired on a LSRII, Fortessa, Symphony A1 (Becton Dickinson, NJ). Foxp3 induction was assessed by expression of FOXP3.

Aqueous solubility = assay type: physicochemical

| SMILES | Lewis Lung tumor growth (Lewis Lung tumors; NR0B2-replete mice, daily treatment from day 10, versus placebo) | Lewis Lung anti-tumor effect, dependence on myeloid NR0B2 (Lewis Lung tumors; NR0B2fl/fl, LysMCre+ versus replete mice) | ABCA1 mRNA reduction (Raw Cells) (ABCA1 mRNA) | Tregs, splenic CD11C+ (DC-enriched) cells (Treg expansion; 50 μM DSHN-OMe versus 100 μM DSHN) | Treg expansion Dendritic Cells (Treg expansion; pass/fail with respect to DSHN) | Aqueous solubility (Aqueous solubility) |
| --- | --- | --- | --- | --- | --- | --- |
| CCN(CC)S(=O)(=O)c1cccc2cc(C(=O)OC)c(O)cc12 [DSHN-OMe, Methyl 5-(N,N-diethylsulfamoyl)-3-hydroxy-2-naphthoate] | significantly reduced tumor growth | only observed in mice with replete myeloid cell expression of NR0B2 | ✓ | significantly fewer Tregs compared to twice the dose of DSHN | ✓ |  |
| CCN(CC)S(=O)(=O)c1cccc2cc(C(=O)O)c(O)cc12 [DSHN, reference compound] |  |  |  |  |  | poor aqueous solubility |
